Several values for one entry are separate records, joined by “and”; a condition that tells them apart may be missing. Equal values may be shown once. Read-outs that look alike come from different tables or passages of the source.
Experiments:
[1] = biological target: T1, purified recombinant IDO1 (Homo sapiens, UniProt P14902); assay: Enzymatic IDO1 inhibition assay (ascorbate/methylene blue reduction system, HPLC detection of kynurenine); format: biochemical; conditions: for LE [kcal/mol/HA]: ligand efficiency, LE = -RT log(IC50)/number of heavy atoms, from enzymatic IC50; for IC50: enzymatic, L-Trp 100 µM, 0.01% Triton X-100, 5% DMSO, 20 min at room temperature, pH 6.5, duplicates, read-out: IC50 [ μ M] (SD)
T1 construct: Full-length human IDO1 gene was cloned into the pET-28a vector; inferred from pET-28a vector and HisTrap purification; made in house; host or cells: E. coli Rosetta (DE3)
T1 sequence (P14902 whole entry): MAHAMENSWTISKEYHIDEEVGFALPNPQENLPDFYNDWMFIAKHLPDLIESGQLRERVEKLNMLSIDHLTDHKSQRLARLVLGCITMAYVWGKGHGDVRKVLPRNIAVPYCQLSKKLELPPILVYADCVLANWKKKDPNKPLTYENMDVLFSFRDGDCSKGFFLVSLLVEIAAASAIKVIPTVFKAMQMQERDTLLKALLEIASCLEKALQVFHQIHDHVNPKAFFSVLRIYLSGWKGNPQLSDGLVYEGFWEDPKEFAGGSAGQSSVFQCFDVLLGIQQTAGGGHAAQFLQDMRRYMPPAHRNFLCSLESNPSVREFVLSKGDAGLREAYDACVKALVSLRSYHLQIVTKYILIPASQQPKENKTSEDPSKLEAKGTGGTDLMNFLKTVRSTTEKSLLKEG

hIDO1 [2] = biological target: T2, hIDO1 (Homo sapiens, UniProt P14902); conditions: previously determined, cited from earlier work; for Inh. [%]: 200 µM
T2 construct: The full ORF of hIDO1 was cloned into the mammalian expression vector pcDNA6/myc-His; myc-His (vector-encoded); host or cells: HEK 293 T
T2 sequence (P14902 whole entry): as above

HEK 293 T cells [3] = conditions: previously determined, 200 µM, cited from earlier work
hIDO1 [4] = biological target: T2, hIDO1; assay: Cellular hIDO1 inhibition (kynurenine production) in transiently transfected HEK 293 T cells; format: cell-based
Protocol: (§1) We tested the cellular hIDO1 inhibitory activity and toxicity of 30 active compounds at a single concentration (Figure 6 and Table 8). As some of the aniline derivatives reacted with Ehrlich’s reagent (p-dimethylaminobenzaldehyde, p-DMAB) used to quantify kynurenine, the kynurenine content of these samples was determined by HPLC. To be able to detect also weak inhibition, compounds were tested at the high concentration of 200 µM (Figure 6A and B, filled bars), except for less soluble compounds (52, 148, 149 and 153), which were tested at a concentration of 50 µM (Figure 6A and B, empty bars).
The cDNA encoding hIDO1 (NCBI, NM 0021464.3) was purchased from Origene as pCMV6-Entry vector (RC206592). The full ORF of hIDO1 was cloned into the mammalian expression vector pcDNA6/myc-His from Invitrogen. Human embryonic kidney 293 T (HEK 293 T) cells were transiently transfected with the plasmid construct encoding hIDO1. A 75 cm^2 flask containing HEK 293 T cells at a confluency of 70% was transfected with jetPEI DNA transfection reagent (Polyplus-transfection), according to manufacturer’s protocol. A total of 20 µg of pcDNA-IDO1 along with 5 µg of pcDNA-GFP plasmid were used for the transfection; GFP was used to evaluate transfection efficiency prior to the cellular assays. 16–18 h post-transfection the 293 T cells were detached with trypsin, centrifuged, and re-suspended in 25 mL of DMEM medium without phenol red, supplemented with penicillin and streptomycin, 10% foetal bovine serum and 1 mM pyruvate (Gibco). Subsequently, 100 µL of cells were distributed to each well of two 96-well round-bottom plates that had been pre-loaded with 100 µL DMEM and the small organic test molecule in DMSO (for a final DMSO concentration of 2%). DMEM medium contains 78 µM L-Trp and was supplemented with 500 µM of L-Trp. Cells transfected with hIDO1 were incubated for 7 h at 37 °C in a CO2 incubator. The reaction was stopped in its linear phase by adding trichloroacetic acid (TCA) to the medium at a final concentration of 4%. Plates were centrifuged for 15 min at 4,000 rpm. 100 µL of supernatant was added to 100 µL of 2% (w/v) DMAB in glacial acetic acid. After 10 min the absorbance was measured at a wavelength of 480 nm to detect kynurenine formation. Alternatively, kynurenine content was determined by HPLC as done for the enzymatic assay.

HEK 293 T cells [5] = assay: Cell viability / cellular toxicity (DAPI staining, cytometry); format: cell-based, human; conditions: compound 200 µM, 7 h
Protocol: as §1
Following DMSO (negative control) or inhibitor treatments, apoptotic cells were detected by 4′,6-diamidino-2-phenylindole (DAPI) staining. Briefly, after 7 h of incubation, cells were washed with PBS, resuspended in PBS with 1 µg/mL DAPI and immediately analysed using a BD LSR II cytometer. A 405 nm laser with 450/50 nm bandpass filter was used to collect data.

[6] = ref 1 of Supporting Information (Röhrig et al. 2021)
[7] = ref 3 of Supporting Information (Röhrig et al. 2016)
[8] = ref 3 of Supporting Information (= main text ref 62)

LE [kcal/mol/HA] [1]	IC50 [1]	melting point	Compound	Inh. [%] (hIDO1 [2]; [6])	Tox. [%] (HEK 293 T cells [3]; [6])	further results
0.78 kcal/mol/HA	–	–	Nc1ccc(Cl)cc1-c1nnc[nH]1 [Compound 11]	100%	0%	–
0.33 kcal/mol/HA	14 µM	–	Clc1cccc(-c2cnn[nH]2)c1CCc1ccccc1 [Compound 13]	–	–	Inh. [%] (hIDO1 [2]; [7]): 76%; Tox. [%] (HEK 293 T cells [3]; [8]): 71%; Tox. [%] (HEK 293 T cells [3]; ref 3 of Supporting Information (= main text ref 62), listed as MMG-0472): 70%
–	–	–	c1ccc(-c2cnn[nH]2)cc1 [Compound 19]	93%	3%	–
0.64 kcal/mol/HA	–	–	Oc1ccccc1-c1cnn[nH]1 [Compound 29]	95%	0%	–
0.73 kcal/mol/HA	–	–	Clc1cccc(-c2cnn[nH]2)c1 [Compound 30]	95%	0%	–
0.36 kcal/mol/HA	9.5 µM	–	Clc1cccc(-c2cnn[nH]2)c1CCC1CCCC1 [Compound 40]	–	–	Inh. [%] (hIDO1 [2]; [7]): 71%; Tox. [%] (HEK 293 T cells [3]; [8]): 22%
0.29 kcal/mol/HA	49 µM	–	Clc1cccc(-c2cnn[nH]2)c1/C=C/c1ccccc1 [Compound 41]	–	–	Inh. [%] (hIDO1 [2]; [7]): 32%; Tox. [%] (HEK 293 T cells [3]; [8]): 58%
0.49 kcal/mol/HA	–	–	Clc1cccc(-c2cnn[nH]2)c1Cl [Compound 47]	–	–	IC50 (hIDO1 [2]; ref 4 of Supporting Information (Röhrig et al. 2012), read-out: IC50 [µM] (cellular)): > 100 µM
0.31 kcal/mol/HA	365 µM and 370 µM	186 to 188 °C	O=C(c1cnn[nH]1)c1cc(Cl)ccc1O [Compound 111, (5-Chloro-2-hydroxyphenyl)(1H-1,2,3-triazol-5-yl)methanone]	–	–	inhibition at 200 µM (hIDO1 [4]): 20%; Tox. [%] (HEK 293 T cells [5]): 0 (0) %
0.46 kcal/mol/HA	8.2 µM	192 to 194 °C	O=C(c1cnn[nH]1)c1ccc(Br)cc1O [Compound 113, (4-Bromo-2-hydroxyphenyl)(1H-1,2,3-triazol-5-yl)methanone]	–	–	inhibition at 200 µM (hIDO1 [4]): 36%; Tox. [%] (HEK 293 T cells [5]): 0 (0) %
0.37 kcal/mol/HA	515 µM and 510 µM	170 to 172 °C	O=C(c1csnn1)c1cnn[nH]1 [Compound 119, (1,2,3-Thiadiazol-4-yl)(1H-1,2,3-triazol-5-yl)methanone]	–	–	inhibition at 200 µM (hIDO1 [4]): 4.8%; Tox. [%] (HEK 293 T cells [5]): 0 (0) %
–	> 1000 µM	161 to 163 °C	O=C(c1ccccn1)c1cnn[nH]1 [Compound 120, Pyridin-2-yl(1H-1,2,3-triazol-5-yl)methanone]	–	–	–
–	1200 µM	221 to 223 °C	O=C(c1ccncc1)c1cnn[nH]1 [Compound 122, Pyridin-4-yl(1H-1,2,3-triazol-5-yl)methanone]	–	–	–
–	–	–	c1ccc(-c2nnc[nH]2)cc1 [Compound 133]	0%	0%	–
0.51 kcal/mol/HA	–	–	Clc1cccc(-c2nnc[nH]2)c1 [Compound 136]	78%	0%	–
0.49 kcal/mol/HA	8.6 µM and 8.7 µM	207 to 209 °C	CNc1ccc(Cl)cc1-c1nc[nH]n1 [Compound 145, 4-Chloro-N-methyl-2-(1H-1,2,4-triazol-3-yl)aniline]	–	–	inhibition at 200 µM (hIDO1 [4]): 93%; Tox. [%] (HEK 293 T cells [5]): 0 (0) %
0.47 kcal/mol/HA	1.2 µM	168 to 171 °C	CCC(=O)Nc1ccc(Cl)cc1-c1nc[nH]n1 [Compound 147, N-(4-Chloro-2-(1H-1,2,4-triazol-3-yl)phenyl)propionamide]	–	–	inhibition at 200 µM (hIDO1 [4]): 100%; Tox. [%] (HEK 293 T cells [5]): 16 (1) %
0.39 kcal/mol/HA	90 µM	208 to 210 °C	Cc1c(Cl)ccc(N)c1-c1nc[nH]n1 [Compound 156, 4-Chloro-3-methyl-2-(1H-1,2,4-triazol-3-yl)aniline]	–	–	–
0.55 kcal/mol/HA	1 µM	212 to 214 °C	Nc1ccc(Cl)c(N)c1-c1nc[nH]n1 [Compound 157, 4-Chloro-2-(1H-1,2,4-triazol-3-yl)benzene-1,3-diamine]	–	–	–

Source: article PMC9246256, “Structure-based optimization of type III indoleamine 2,3-dioxygenase 1 (IDO1) inhibitors” (Journal of Enzyme Inhibition and Medicinal Chemistry, 2022)
